{"source": "PubChem BioAssay (NCI)", "assay_in_all_cases": "NCI tumour cell line growth inhibition, 48 h", "key": {"P388 leukemia": {"system": "P388 leukemia"}, "P388/ADR leukemia": {"system": "P388/ADR leukemia"}, "SN12K1 renal": {"system": "SN12K1 renal"}}, "note": "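Assay format: 96-well plates, 48-hour exposure. At the GI50, growth is halved. At the TGI there is no net growth.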", "data": [{"smiles": "CSc1ccc(/C=C2\\CNC/C(=C\\c3ccc(SC)cc3)C2=O)cc1", "values": [{"measurement": "GI50", "setting": "P388 leukemia", "result": 150, "unit": "µg/mL"}, {"measurement": "TGI", "setting": "P388 leukemia", "result": 150, "unit": "µg/mL"}, {"measurement": "GI50", "setting": "P388/ADR leukemia", "result": 150, "unit": "µg/mL"}, {"measurement": "TGI", "setting": "P388/ADR leukemia", "result": 150, "unit": "µg/mL"}, {"measurement": "GI50", "setting": "SN12K1 renal", "result": 15.5, "unit": "µg/mL"}, {"measurement": "TGI", "setting": "SN12K1 renal", "result": 103, "unit": "µg/mL"}]}]}
